We go through 1 compound from patent publication US20260144797A1, “METHODS OF REDUCING OR PREVENTING METASTASES” (FOGHORN THERAPEUTICS INC., priority 2022, published 2026).

SMILES strings stand for the structures.

What all share (type): in vivo
For test [1], the system named is uveal melanoma (UM) CDX models MP-41 and MP-46. Description: Differential gene expression by RNA-seq in UM CDX models (Example 1). Particulars: MP-41 and MP-46 CDX; 0.5-3 mpk QD or BID; 5 days; RNA-seq (FIG. 3). The protocol: Uveal melanoma can be classified into Class 1 or Class 2 tumors based on the DecisionDx®-UM gene expression profiling (GEP) test, a widely used prognostic test to predict individual risk of metastasis in patients with uveal melanoma. Class 1 and 2 tumors are associated with low and high risk of metastasis, respectively. Gene expression profiling (GEP) Class 2 (dark blue), GEP Class 1 (light blue), PRAME (green), and BAP1 (orange) expression were measured in three uveal melanoma (UM) CDX models: 92-1, MP-41, and MP-46 (FIG. 2). GEP class 1 and GEP class 2 are defined in FIG. 1.
Differential gene expression was measured by RNA-seq in two uveal melanoma (UM) CDX models: MP-41 and MP-46 (FIG. 3). UM CDX model MP-41 was divided into four cohorts—cohort one was treated with 0.5 mpk of Compound A twice a day (BID), cohort two was treated with 1 mpk of Compound A once a day (QD), cohort three was treated with 1 mpk of Compound A twice a day, and cohort 4 was treated with 2 mpk of Compound A once a day. UM CDX model MP-46 was divided into six cohorts —cohort one was treated with 0.5 mpk of Compound A twice a day (BID), cohort two was treated with 1 mpk of Compound A once a day (QD), cohort three was treated with 0.75 mpk of Compound A twice a day, cohort 4 was treated with 1.5 mpk of Compound A once a day, cohort five was treated with 1.5 mpk of Compound A twice a day, and cohort six was treated with 3 mpk of Compound A twice a day. All treatments ended at 5 days, and animals were sacrificed. GEP Class 1 (green) comprises 8 genes that are high in Class 1 (low risk), and GEP Class 2 (blue) comprises 4 genes that are high in Class 2 (higher risk). PRAME (grey) positivity is associated with poor prognosis in several malignancies, including UM.

Test [2] deals with uveal melanoma (UM) CDX model MP-41. As to the kind of experiment: Differential gene expression by RNA-seq in UM CDX model MP-41 (Example 2). Particulars: MP-41 CDX; 0.5-2 mpk QD or BID; 4 or 5 days; RNA-seq (FIG. 4). The protocol: Differential gene expression was measured by RNA-seq in uveal melanoma (UM) CDX model: MP-41 (FIG. 4). This CDX model is a BAP1 intact but aggressive uveal melanoma model. UM CDX model MP-41 was divided into four cohorts—cohort one was treated with 0.5 mpk of Compound A twice a day (BID), cohort two was treated with 1 mpk of Compound A once a day (QD), cohort three was treated with 1 mpk of Compound A twice a day, and cohort 4 was treated with 2 mpk of Compound A once a day. All treatments ended at 4 or 5 days, and animals were sacrificed.

The test system of test [3] is uveal melanoma (UM) CDX models 92-1, MP-41, and MP-46. As to the kind of experiment: Differential gene expression by RNA-seq, MITF/SOX10 pathway (Example 3). The conditions noted are these: 92.1 and MP-46: 1.5 mpk QD, 6 days; MP-41: 2 mpk daily, 4 days; RNA-seq (FIG. 5). Here is the method: Differential gene expression was measured by RNA-seq in three uveal melanoma (UM) CDX models: 92-1, MP-41, and MP-46 (FIG. 5 and FIG. 6). UM CDX models 92.1 and MP-46 were treated with 1.5 mpk of Compound A, daily (QD), for 6 days, and then animals were sacrificed (FIG. 5). UM CDX model MP-41 was treated with 2 mpk of Compound A, daily, for 4 days, and then animals were sacrificed (FIG. 5). Expression of SOX10, MITF (PD markers) and their downstream targets: melanin pathway markers MLANA, PMEL, and TYR were analyzed. Cyclin D1 is a cell proliferation marker, and BRM and BRG1 were analyzed for candidate selection.

In the next test the test system is MP-41 CDX tumor. As to the kind of experiment: Immunohistochemistry of MP-41 CDX tumor slices. Here is the method: Representative MP-41 CDX tumor slices were analyzed after 5 days of treatment with 2 mpk of Compound A (OnTx) or a Vehicle (Veh), administered daily (FIGS. 7A and 7B).
[4] abbreviates: MP-41 xenograft studies (FIGS. 7A and 7B).

Turning to `COC[C@@H](NC(=O)c1ccn(S(C)(=O)=O)c1)C(=O)Nc1nc(-c2cccc(N3C[C@@H](C)O[C@@H](C)C3)n2)cs1` (stereo in doubt) [Compound A, N-(1-((4-(6-(2,6-dimethylmorpholino)pyridin-2-yl)thiazol-2-yl)amino)-3-methoxy-1-oxopropan-2-yl)-1-(methylsulfonyl)-1H-pyrrole-3-carboxamide], in test [1], the “DecisionDx-UM Gene Expression Profile (GEP)” value was “positive shift”, the PRAME expression result is “decrease” and the “higher risk profile Class 2 genes expression” value is “decrease”. In test [2], the BAP1 expression entry is “subtle upregulation”, the GDF15 expression entry is on record as “dose-dependent downregulation” and the PROS1 expression result was “dose-dependent downregulation”. In addition, in test [3], the MITF expression entry is on record as “sustained downregulation”; the SOX10 expression entry is recorded as “sustained downregulation”; the “melanoma-specific downstream targets of MITF and SOX10, expression” value was “sustained downregulation”. In addition, the “proliferation marker Cyclin D1 (IHC)” value with MP-41 CDX tumor (MP-41 CDX, 2 mpk daily, 5 days (FIGS. 7A and 7B)) is listed as “decreases with treatment”. Also, in the test on MP-41 CDX tumor (setting [4]), the “melanin pathway markers downstream of MITF/SOX10 signaling (IHC)” value is on record as “Decrease” and the “proliferation markers (IHC)” value was “Decrease”.
